Inconclusive results and toxic doses are left out. The calls were made as follows: active = survival T/C of 150% or more; inactive = T/C below 125% in these data.
System: P388 leukemia ip, CD2F1 mice, survival T/C
Assay: NCI In Vivo Anticancer Drug Screen. Data for tumor model P388 Leukemia (intraperitoneal) in CD2F1 (CDF1) mice
Conditions: endpoint: median survival time, higher = longer survival
Summary of the method: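 Mice carrying the transplanted tumor received test compound or vehicle. Survival was recorded in each group, and the value is the treated-group measurement divided by that of the vehicle-treated control group.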

[1] = dose: 60.0 mg/kg/injection, schedule: Q01DX005 (ip), vehicle: saline with Tween-80
[2] = dose: 120.0 mg/kg/injection, schedule: Q01DX005 (ip), vehicle: saline with Tween-80
[3] = dose: 240.0 mg/kg/injection, schedule: Q01DX005 (ip), vehicle: saline with Tween-80

Measured: T/C

CC(C)(CO)NC(=O)c1ccc(Br)cc1
inactive: dose: 25.0 mg/kg/injection, schedule: Q01DX009 (ip), vehicle: other 100 % of control | dose: 50.0 mg/kg/injection, schedule: Q01DX009 (ip), vehicle: other 100 % of control | dose: 100.0 mg/kg/injection, schedule: Q01DX009 (ip), vehicle: other 104 % of control | dose: 200.0 mg/kg/injection, schedule: Q01DX009 (ip), vehicle: other 100 % of control | dose: 400.0 mg/kg/injection, schedule: Q01DX009 (ip), vehicle: other 104 % of control

Cc1ccnc(NN=O)c1
active: dose: 6.25 mg/kg/injection, schedule: Q01DX009 (ip), vehicle: water 159 % of control
inactive: dose: 1.5 mg/kg/injection, schedule: Q01DX009 (ip), vehicle: water 109 % of control | dose: 1.56 mg/kg/injection, schedule: Q01DX009 (ip), vehicle: water 100 % of control | dose: 3.0 mg/kg/injection, schedule: Q01DX009 (ip), vehicle: water 109 % of control | dose: 3.12 mg/kg/injection, schedule: Q01DX009 (ip), vehicle: water 117 % of control | dose: 12.5 mg/kg/injection, schedule: Q01DX009 (ip), vehicle: water 87 % of control

O=C(Nc1ccc(Cl)c(Cl)c1)Sc1ccc(Cl)cc1
inactive: dose: 50.0 mg/kg/injection, schedule: Q01DX005 (ip), vehicle: saline with Tween-80 113 % of control | dose: 100.0 mg/kg/injection, schedule: Q01DX005 (ip), vehicle: saline with Tween-80 119 % of control | dose: 200.0 mg/kg/injection, schedule: Q01DX005 (ip), vehicle: saline with Tween-80 112 % of control

CC1=C2CC3CCC(C)C2(CC1)C3(C)C (configuration not stated)
inactive: dose: 50.0 mg/kg/injection, schedule: Q01DX009 (ip), vehicle: saline 98 % of control | dose: 100.0 mg/kg/injection, schedule: Q01DX009 (ip), vehicle: saline 95 % of control | dose: 100.0 mg/kg/injection, schedule: Q04DX003 (ip), vehicle: saline 95 % of control | dose: 200.0 mg/kg/injection, schedule: Q01DX009 (ip), vehicle: saline 95 % of control | dose: 200.0 mg/kg/injection, schedule: Q04DX003 (ip), vehicle: saline 95 % of control | dose: 400.0 mg/kg/injection, schedule: Q04DX003 (ip), vehicle: saline 100 % of control

COC1CCC(CO)O1 (configuration not stated)
inactive: dose: 50.0 mg/kg/injection, schedule: Q01DX009 (ip), vehicle: suspension in saline 100 % of control | dose: 100.0 mg/kg/injection, schedule: Q01DX009 (ip), vehicle: suspension in saline 108 % of control | dose: 200.0 mg/kg/injection, schedule: Q01DX009 (ip), vehicle: suspension in saline 102 % of control

O=C(Nc1nccs1)Nc1cc(C(F)(F)F)ccc1Cl
inactive: dose: 25.0 mg/kg/injection, schedule: Q01DX009 (ip), vehicle: Klucel (hydroxypropylcellulose) (HPC) 102 % of control | dose: 50.0 mg/kg/injection, schedule: Q01DX009 (ip), vehicle: Klucel (hydroxypropylcellulose) (HPC) 108 % of control | dose: 100.0 mg/kg/injection, schedule: Q01DX009 (ip), vehicle: Klucel (hydroxypropylcellulose) (HPC) 97 % of control

COc1ccc(C(=O)/C=C/c2c[nH]c3ccccc23)c(O)c1
inactive: dose: 15.0 mg/kg/injection, schedule: Q01DX005 (ip), vehicle: saline with Tween-80 96 % of control | dose: 30.0 mg/kg/injection, schedule: Q01DX005 (ip), vehicle: saline with Tween-80 96 % of control | [1] 96 % of control | [2] 92 % of control | [3] 96 % of control

CCOCCOCCOC(C)Oc1ccc(Br)cc1 (configuration not stated)
inactive: [1] 104 % of control | [2] 100 % of control | [3] 104 % of control

NC(/N=C/c1cc(Cl)cc(Cl)c1O)=N\S(=O)(=O)c1ccc(N=Cc2cc(Cl)cc(Cl)c2O)cc1
inactive: dose: 50.0 mg/kg/injection, schedule: Q01DX009 (ip), vehicle: saline with Tween-80 98 % of control | dose: 100.0 mg/kg/injection, schedule: Q01DX009 (ip), vehicle: saline with Tween-80 91 % of control | dose: 200.0 mg/kg/injection, schedule: Q01DX009 (ip), vehicle: saline with Tween-80 98 % of control

— PubChem BioAssay AID330 (DTP/NCI, 2004)
